Patent US12331033B2, “Inhibitors of SARM1” (Disarm Therapeutics, Inc., priority 2020, dated 2025)
pIC50: −log10 of the molar value.

Biological target: SARM1 (ARM-SAM-TIR) (Homo sapiens (Human), UniProt Q6SZW1)
Experiment: ARM-SAM-TIR SARM1 IC50 assay (NADase activity, NAD+ cleavage, RapidFire MS)
Assay type: biochemical
Settings: ARM-SAM-TIR lysate 5 μg/mL, 2 h pre-incubation, 5 μM NAD+, 2 hr room temperature
How it was run: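 Lysate of NRK1-HEK293T cells transfected with full-length ARM-SAM-TIR SARM1 (5 μg/mL final) pre-incubated with compound (1% DMSO) 2 h at room temperature in Dulbecco's PBS. Reaction started with 5 μM NAD+, run 2 hr at room temperature, then stopped with TCA/acetonitrile. NAD+ and ADPR quantified by RapidFire MS.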

Chain of SARM1 (ARM-SAM-TIR) (Q6SZW1 other isoform, or with tags, fused parts or gaps): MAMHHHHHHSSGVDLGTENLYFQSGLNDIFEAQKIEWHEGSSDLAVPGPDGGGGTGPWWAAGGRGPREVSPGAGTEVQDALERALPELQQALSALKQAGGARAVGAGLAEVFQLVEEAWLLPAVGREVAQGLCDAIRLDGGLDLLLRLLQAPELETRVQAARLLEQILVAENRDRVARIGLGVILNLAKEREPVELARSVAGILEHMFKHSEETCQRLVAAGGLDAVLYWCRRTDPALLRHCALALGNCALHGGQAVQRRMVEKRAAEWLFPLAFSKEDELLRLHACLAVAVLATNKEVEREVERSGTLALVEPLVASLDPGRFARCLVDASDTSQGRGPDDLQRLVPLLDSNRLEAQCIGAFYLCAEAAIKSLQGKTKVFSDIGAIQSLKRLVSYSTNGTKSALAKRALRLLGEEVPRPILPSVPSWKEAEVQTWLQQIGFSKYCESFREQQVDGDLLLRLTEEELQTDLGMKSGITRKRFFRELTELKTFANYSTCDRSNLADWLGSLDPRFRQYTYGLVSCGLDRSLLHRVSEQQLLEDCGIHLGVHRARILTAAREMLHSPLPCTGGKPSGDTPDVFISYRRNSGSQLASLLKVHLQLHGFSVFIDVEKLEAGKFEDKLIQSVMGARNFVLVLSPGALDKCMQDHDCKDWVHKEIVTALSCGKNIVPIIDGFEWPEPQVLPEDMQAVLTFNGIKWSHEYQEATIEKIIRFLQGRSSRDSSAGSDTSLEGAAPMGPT

SMILES	pIC50
CC1(c2c(-c3ccnnc3)n[nH]c2NC(=O)CCc2ccc(Cl)nc2)CC1 [Example 321]	> 5.30
Cc1cnccc1-c1n[nH]c(NC(=O)CCc2ccc(Cl)nc2)c1C [Example 322]	> 5.30
Cc1c(-c2ccncc2)n[nH]c1NC(=O)C1Cc2ccccc2CO1 (centres unmarked) [Example 323]	4.82 to 5.30
O=C(CCc1ccc(Cl)cc1)Nc1cc(-c2c(F)cncc2Br)n[nH]1 [Example 324]	4.82 to 5.30
N#Cc1c(-c2ccncc2F)n[nH]c1NC(=O)CCc1ccc(Cl)cc1 [Example 325]	> 5.30
